The test system of one data set is M. bovis BCG. Kind of data set: microbe, parasite or virus in culture. The note with it: for anti-mycobacterial activity (in words): M. bovis BCG; for MIC: Mycobacterium tuberculosis variant bovis BCG, BCG. The class given is cell-based, Mycobacterium bovis BCG Pasteur.
Data set [1] in a line: Cytotoxicity against HUVECs (WST-8). The class given is cell-based, human. The note with it: human, HUVECs (human umbilical vein endothelial cells), 72 h. How it is done: (§1) HUVECs (5 × 10^5 cells/vial) was purchased from Kurabo Inc. and grown in HuMedia-EG2 medium with growth supplements (Kurabo Inc., Osaka, Japan). HUVECs in the culture medium was plated into each well of 96-well plates (2 × 10^3 cells/well/100 µL). After 24 h, the serially diluted compounds, which were dissolved in the medium containing no more than 0.5% EtOH, were added, and then the plates were incubated for an additional 72 h in a humidified atmosphere of 5% CO2 at 37 °C. The cell proliferation was detected by WST-8 colorimetric reagent (Nacalai Tesque, Inc., Kyoto, Japan). The IC50 value was determined by linear interpolation from the growth inhibition curve.
A general note: Tetrazolium assays rely on reduction of a dye to a coloured formazan, in cell work by metabolically active cells.

Another data set relates to HUVECs. Kind of data set: Cytotoxicity against HUVECs (WST-8). The class given is cell-based, human. As for the experimental part:
as §1

Molecules are shown by their SMILES. ≈ marks a conversion by molar mass, not a printed value. Read-outs that look alike come from different tables or passages of the source.

Turning to `O=C(Cc1ccccc1)Nc1cnc2ccccc2c1` [Compound 36, 2-Phenyl-N-(quinolin-3-yl)acetamide], in the data set with M. bovis BCG, the “anti-mycobacterial activity (in words)” value was “significantly weakened anti-mycobacterial activity”. For the same compound, the MIC with M. bovis BCG (168 h, read-out: MIC (Aerobic)) came out at 100 µM (≈ 26.2 µg/mL); in the data set on M. bovis BCG (336 h, read-out: MIC (Hypoxic)), 100 µM (≈ 26.2 µg/mL). For the same compound, inhibition in data set [1] was half-maximal at 4.9 µM (IC50 at 72 h).
On to `c1ccc(CCNc2cccnc2)cc1` [Compound 8, N-Phenethylpyridin-3-amine], for which, in the data set on M. bovis BCG, the “anti-mycobacterial activity (in words)” value is “weak anti-mycobacterial activity”. The MIC in the data set on M. bovis BCG (168 h, read-out: MIC (Aerobic)) is 200 µM (≈ 39.7 µg/mL); with M. bovis BCG (336 h, read-out: MIC (Hypoxic)), 200 µM (≈ 39.7 µg/mL). This compound showed an IC50 at 72 h in data set [1] greater than 100 µM.
`c1ccc2ncc(NCCc3cccc4ccccc34)cc2c1` [Compound 43, N-(2-(Naphthalen-1-yl)ethyl)quinolin-3-amine]: the “anti-mycobacterial activity (in words)” value in the data set on M. bovis BCG was “markedly reduced anti-mycobacterial activity”. For the same compound, the MIC in the data set on M. bovis BCG (168 h, read-out: MIC (Aerobic)) is 100 µM (≈ 29.8 µg/mL); in the data set with M. bovis BCG (336 h, read-out: MIC (Hypoxic)), greater than 200 µM. The midpoint of inhibition in data set [1], the IC50 at 72 h, lay at 11 µM.
In the same order, the values of `CN(CCc1ccccc1)c1cnc2ccccc2c1` [Compound 37, N-Methyl-N-phenethylquinolin-3-amine] are “antibacterial activity comparable to that of 6”, 6.25 µM (≈ 1.64 µg/mL), 50 µM (≈ 13.1 µg/mL) and 16 µM.
Consider `O=c1c(NCCc2ccccc2)c[nH]c2ccccc12` [Compound 35, 3-(Phenethylamino)quinolin-4(1H)-one], for which the “anti-mycobacterial activity (in words)” value in the data set with M. bovis BCG is “no anti-mycobacterial or cytotoxic activity”. The MIC in the data set on M. bovis BCG (168 h, read-out: MIC (Aerobic)) was greater than 200 µM; in the data set on M. bovis BCG (336 h, read-out: MIC (Hypoxic)) it was greater than 200 µM. Also, the IC50 at 72 h in data set [1] was greater than 100 µM. Further, the “cytotoxicity (in words)” value in the data set with HUVECs is listed as “no anti-mycobacterial or cytotoxic activity”.
As to `c1ccc2ncc(NCCC3CCCCC3)cc2c1` [Compound 42, N-(2-Cyclohexylethyl)quinolin-3-amine], the MIC was found to be 50 µM (≈ 12.7 µg/mL) with M. bovis BCG (168 h, read-out: MIC (Aerobic)) and 100 µM (≈ 25.4 µg/mL) in the data set on M. bovis BCG (336 h, read-out: MIC (Hypoxic)). Moreover, inhibition in data set [1] was half-maximal at 15 µM (IC50 at 72 h).
Regarding `COC1=CC(=O)c2cc(NCCc3ccccc3)cnc2C1=O` [Compound 32, 7-Methoxy-3-(phenethylamino)quinoline-5,8-dione], in the data set on M. bovis BCG, the “anti-mycobacterial activity (in words)” value is on record as “weakened anti-mycobacterial activity”. Besides, the MIC in the data set on M. bovis BCG (168 h, read-out: MIC (Aerobic)) was determined as 25 µM (≈ 7.71 µg/mL); in the data set with M. bovis BCG (336 h, read-out: MIC (Hypoxic)), 50 µM (≈ 15.4 µg/mL). For the same compound, the concentration for half-maximal inhibition (IC50) at 72 h in data set [1] was less than 1 µM. The “cytotoxicity (in words)” value in the data set with HUVECs is reported as “enhanced cytotoxicity”.
For the compound `c1csc(CCNc2cnc3ccccc3c2)c1` [Compound 45, N-(2-(Thiophen-2-yl)ethyl)quinolin-3-amine], the MIC came out at 6.25 µM (≈ 1.59 µg/mL) in the data set on M. bovis BCG (168 h, read-out: MIC (Aerobic)) and 50 µM (≈ 12.7 µg/mL) in the data set on M. bovis BCG (336 h, read-out: MIC (Hypoxic)). In addition, the midpoint of inhibition in data set [1], the IC50 at 72 h, lay at 14 µM.
`c1ccc(CCOc2cnc3ccccc3c2)cc1` [Compound 40, 3-Phenethoxyquinoline]: in the data set on M. bovis BCG, the “anti-mycobacterial activity (in words)” value is on record as “significantly weakened anti-mycobacterial activity”. Also, the MIC in the data set on M. bovis BCG (168 h, read-out: MIC (Aerobic)) is 50 µM (≈ 12.5 µg/mL); in the data set with M. bovis BCG (336 h, read-out: MIC (Hypoxic)) it was 100 µM (≈ 24.9 µg/mL). Further, the IC50 at 72 h in data set [1] is 11 µM.
For the compound `NNC(=O)c1ccncc1` [isoniazid, reference compound], the MIC in the data set with M. bovis BCG (168 h, read-out: MIC (Aerobic)) was 0.39 µM (≈ 0.0535 µg/mL); in the data set with M. bovis BCG (336 h, read-out: MIC (Hypoxic)), greater than 200 µM.
On to `COC1=Cc2ccnc3c(NCCc4ccccc4)cnc(c23)C1=O` [Compound 1, 3-(phenethylamino)demethyl(oxy)aaptamine, reference compound], for which the MIC with M. bovis BCG (168 h, read-out: MIC (Aerobic)) amounted to 1.56 µM (≈ 0.517 µg/mL); in the data set on M. bovis BCG (336 h, read-out: MIC (Hypoxic)), 1.56 µM (≈ 0.517 µg/mL). The midpoint of inhibition in data set [1], the IC50 at 72 h, lay at 1.36 µM.
Consider `COc1cc2ccnc(C(=O)NCCc3ccccc3)c2cc1OC` [Compound 5, 6,7-Dimethoxy-N-phenethylisoquinoline-1-carboxamide], for which, in the data set on M. bovis BCG, the “anti-mycobacterial activity (in words)” value is “weak anti-mycobacterial activity”. For the same compound, the MIC turned out to be 100 µM (≈ 33.6 µg/mL) with M. bovis BCG (168 h, read-out: MIC (Aerobic)) and 200 µM (≈ 67.3 µg/mL) in the data set on M. bovis BCG (336 h, read-out: MIC (Hypoxic)). In data set [1], this compound showed an IC50 at 72 h of 11.9 µM.
With `C#CCN(CCc1ccccc1)c1cnc2ccccc2c1` [Compound 38, N-Phenethyl-N-(prop-2-yn-1-yl)quinolin-3-amine], in the data set with M. bovis BCG, the “anti-mycobacterial activity (in words)” value is reported as “significantly weakened anti-mycobacterial activity”. In addition, the MIC in the data set on M. bovis BCG (168 h, read-out: MIC (Aerobic)) turned out to be 100 µM (≈ 28.6 µg/mL); in the data set with M. bovis BCG (336 h, read-out: MIC (Hypoxic)) it was 100 µM (≈ 28.6 µg/mL). 18 µM corresponded to half-maximal inhibition in data set [1] (IC50 at 72 h).
As for `C#CCCNc1cnc2ccccc2c1` [Compound 46, N-(But-3-yn-1-yl)quinolin-3-amine], the MIC in the data set on M. bovis BCG (168 h, read-out: MIC (Aerobic)) was greater than 200 µM; in the data set on M. bovis BCG (336 h, read-out: MIC (Hypoxic)), greater than 200 µM. Half-maximal inhibition in data set [1] (IC50 at 72 h) required 53 µM.
For the compound `c1ccc2cc(CCNc3cnc4ccccc4c3)ccc2c1` [Compound 44, N-(2-(Naphthalen-2-yl)ethyl)quinolin-3-amine], the “anti-mycobacterial activity (in words)” value in the data set with M. bovis BCG was “good anti-mycobacterial activity under aerobic and hypoxic conditions”. The MIC with M. bovis BCG (168 h, read-out: MIC (Aerobic)) was determined as 6.25 µM (≈ 1.86 µg/mL); in the data set on M. bovis BCG (336 h, read-out: MIC (Hypoxic)), 12.5 µM (≈ 3.73 µg/mL). The same compound showed an IC50 at 72 h in data set [1] of 13 µM.
For the compound `c1ccc(CCNc2cncc3cccnc23)cc1` [Compound 7, N-Phenethyl-1,6-naphthyridin-8-amine], the “anti-mycobacterial activity (in words)” value in the data set with M. bovis BCG is “weak anti-mycobacterial activity”. Moreover, the MIC in the data set on M. bovis BCG (168 h, read-out: MIC (Aerobic)) turned out to be 100 µM (≈ 24.9 µg/mL); in the data set with M. bovis BCG (336 h, read-out: MIC (Hypoxic)), 50 µM (≈ 12.5 µg/mL). The same compound returned an IC50 at 72 h in data set [1] of 8.1 µM.
For the compound `O=C1C=CC(=O)c2ncc(NCCc3ccccc3)cc21` [Compound 25, 3-(Phenethylamino)quinoline-5,8-dione], in the data set on M. bovis BCG, the “anti-mycobacterial activity (in words)” value is listed as “weakened anti-mycobacterial activity”. Moreover, the MIC with M. bovis BCG (168 h, read-out: MIC (Aerobic)) was 100 µM (≈ 27.8 µg/mL); in the data set on M. bovis BCG (336 h, read-out: MIC (Hypoxic)), greater than 200 µM. The compound further returned an IC50 at 72 h in data set [1] of less than 1 µM. In addition, the “cytotoxicity (in words)” value with HUVECs is on record as “enhanced cytotoxicity”.
For `c1ccc(CCNc2cnc3ccccc3c2)cc1` [Compound 6, N-Phenethylquinolin-3-amine], the MIC with M. bovis BCG (168 h, read-out: MIC (Aerobic)) is 6.25 µM (≈ 1.55 µg/mL); in the data set on M. bovis BCG (336 h, read-out: MIC (Hypoxic)), 50 µM (≈ 12.4 µg/mL). The compound further showed an IC50 at 72 h in data set [1] of 18 µM.

Usually IC50 stands for the concentration that gives 50% inhibition. Lower therefore signals higher potency.
